Experimental data reported in US6207671A, “Cycloalkano-pyridines” (Bayer Aktiengesellschaft, priority 1996, dated 2001).
pIC50: −log10 of the molar value.

Legend:
CETP = assay: Ex vivo activity: CETP activity in serum of treated hamsters (modified CETP test); design: species or system Syrian golden hamsters; conditions: for % Inhibition at 30 mg/kg: ex vivo CETP activity in hamster serum; for ED50 values for ex vivo activity: hamster serum, up to 24 hours after administration
Experimental: Syrian golden hamsters from in-house breeding are anaesthetized after fasting for 24 hours (0.8 mg/kg of atropine, 0.8 mg/kg of Ketavet® s.c., 30'later 50 mg/kg of Nembutal i.p.). The jugular vein is then exposed and cannulated. The test substance is dissolved in a suitable solvent (as a rule Adalat placebo solution: 60 g of glycerol, 100 ml of H2 O, PEG-400 to 1000 ml) and administered to the animals via a PE catheter inserted in the jugular vein. The control animals receive the same volume of solvent without test substance. The vein is then tied off and the wound is closed. The administration of the test substances can also be carried out p.o., by orally administering the substances dissolved in DMSO and suspended in 0.5% Tylose by means of a stomach tube. The control animals receive identical volumes of solvent without test substance.
After various times--up to 24 hours after administration--blood (about 250 μl) is taken from the animals by puncture of the retro-orbital venous plexus. Clotting is ended by incubation at 4° C. overnight, then centrifugation is carried out at 6000×g for 10 minutes. In the serum thus obtained, CETP activity is determined by the modified CETP test. As for the CETP test described above, the transfer of ^3 H-cholesterol ester from HD lipoproteins to biotinylated LD lipoproteins is measured.
The reaction is ended by addition of Streptavidin-SPA®beads (Amersham) and the transferred radioactivity is determined directly in the liquid scintillation counter.
The test mixture is carried out as described under "CETP test". For the testing of the serum, only 10 μl of CETP are replaced by 10 μl of the corresponding serum samples. As controls, corresponding incubations with sera of untreated animals are used.
The activity transferred in the control mixtures with control sera is rated as 100% transfer. The substance concentration at which this transfer is reduced to a half is indicated as the ED50 value.

[1] = target: T1, cholesterol ester transfer protein (CETP) (Homo sapiens, UniProt P11597); assay: CETP inhibition test: transfer of 3H-cholesterol ester from human HD lipoproteins to biotinylated LD lipoproteins (SPA); assay type: biochemical; conditions: human plasma CETP, 18 h, 37° C.
T1 construct: CETP is obtained from human plasma in partially purified form; from tissue; host or cells: human plasma
T1 sequence (P11597 18-493): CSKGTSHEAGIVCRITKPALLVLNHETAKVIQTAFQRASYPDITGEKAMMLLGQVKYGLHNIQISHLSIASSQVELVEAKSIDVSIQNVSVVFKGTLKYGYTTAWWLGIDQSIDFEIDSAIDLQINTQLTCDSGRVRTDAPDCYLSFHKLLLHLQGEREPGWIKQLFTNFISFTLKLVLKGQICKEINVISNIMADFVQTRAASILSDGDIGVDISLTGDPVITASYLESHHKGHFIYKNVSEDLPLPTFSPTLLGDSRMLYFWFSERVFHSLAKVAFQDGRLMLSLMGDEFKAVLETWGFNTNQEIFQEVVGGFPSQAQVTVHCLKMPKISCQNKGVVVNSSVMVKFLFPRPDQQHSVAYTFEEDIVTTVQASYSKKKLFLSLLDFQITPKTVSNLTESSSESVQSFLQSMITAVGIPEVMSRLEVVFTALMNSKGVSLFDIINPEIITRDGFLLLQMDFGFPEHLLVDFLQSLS
Experimental: CETP is obtained from human plasma in partially purified form by differential centrifugation and column chromatography and used for the test. To this end, human plasma is adjusted to a density of 1.21 g per ml using NaBr and centrifuged at 4° C. for 18 h at 50,000 rpm. The bottom fraction (d>1.21 g/ml) is applied to a Sephadex®phenyl-sepharose 4B (Pharmacia) column, washed with 0.15 M NaCl/0.001 M trisHCl pH 7.4 and then eluted with distilled water. The CETP-active fractions are pooled, dialysed against 50 mM Na acetate pH 4.5 and applied to a CM-Sepharose® (Pharmacia) column. The column is then eluted using a linear gradient (0-1 M NaCl). The pooled CETP fractions are dialysed against 10 mM trisHCl pH 7.4 and then further purified by chromatography on a Mono Q® column (Pharmacia).
50 ml of fresh human EDTA plasma are adjusted to a density of 1.12 using NaBr and centrifuged at 50,000 rpm for 18 h at 4° C. in a Ty 65 rotor. The upper phase is used to obtain cold LDL. The lower phase is dialysed against 3×4 l of PDB buffer (10 mM tris/HCl pH 7.4, […] NaCl, 1 mM EDTA, 0.02% NaN3). 20 μl of ^3 H-cholesterol (Dupont NET-725; 1 μC/μl dissolved in ethanol) are then added per 10 ml of retentate volume and the mixture is incubated under N2 at 37° C. for 72 h.
The mixture is then adjusted to the density 1.21 using NaBr and centrifuged at 20° C. for 18 h at 50,000 rpm in the Ty 65 rotor. The upper phase is recovered and the lipoprotein fractions are purified by gradient centrifugation. To this end, the isolated, labelled lipoprotein fraction is adjusted to a density of 1.26 using NaBr. Each 4 ml of this solution are covered with a layer of 4 ml of a solution of density 1.21 and 4.5 ml of a solution of 1.063 (density solutions from PDB buffer and NaBr) in centrifuge tubes (SW 40 rotor) and then centrifuged in the SW 40 rotor for 24 h at 38,000 rpm and 20° C. The intermediate layer lying between the densities 1.063 and 1.21 and containing the labelled HDL is dialysed at 4° C. against 3×100 volumes of PDB buffer.
The retentate contains radiolabelled ^3 H-CE-HDL which, adjusted to about 5×10^6 cmp per ml, is used for the test.
To test the CETP activity, the transfer of ^3 H-cholesterol ester from human HD lipoproteins to biotinylated LD lipoproteins is measured.
The reaction is ended by addition of streptavidin-SPA®beads (Amersham) and the transferred radioactivity is determined directly in a liquid scintillation counter.
In the test mixture, 10 μl of HDL-^3 H-cholesterol ester (~50,000 cpm) are incubated at 37° C. for 18 h with 10 μl of biotin-LDL (Amersham) in 50 mM Hepes/0.15 M NaCl/0.1% bovine serum albumin/0.05% NaN3 pH 7.4 with 10 μl of CETP (1 mg/ml) and 3 μl of solution of the substance to be tested (dissolved in 10% DMSO/1% RSA). 200 μl of the SPA-streptavidin bead solution (TRKQ 7005) are then added, the mixture is incubated further for 1 h with shaking and then measured in the scintillation counter. As controls, corresponding incubations with 10 μl of buffer, 10 μl of CETP at 4° C. and 10 μl of CETP at 37° C. are used.
The activity transferred into the control mixtures with CETP at 37° C. is rated as 100% transfer. The substance concentration at which this transfer is reduced by half is indicated as the IC50 value.

HDL cholesterol = assay: In vivo activity: oral action on lipoproteins and triglycerides in hamsters (HDL rise); design: species or system Syrian golden hamsters; conditions: dose 2 × 3 mg/kg, up to 24 hours
Experimental: In experiments to determine the oral action on lipoproteins and triglycerides, test substance dissolved in DMSO and 0.5% Tylose suspended by means of a stomach tube are administered orally to Syrian golden hamsters from in-house breeding. To determine the CETP activity, blood (about 250 μl) is taken by retro-orbital puncture before the start of the experiment. The test substances are then administered orally by means of a stomach tube. The control animals receive identical volumes of solvents without test substance. The feed is then withdrawn from the animals and blood is taken at various times--up to 24 hours after substance administration--by puncture of the retro-orbital venous plexus. Clotting is ended by incubation at 4° C. overnight, then centrifugation at 6000×g is carried out for 10 minutes. In the serum thus obtained, the content of cholesterol and triglycerides is determined with the aid of modified commercially available enzyme tests (cholesterol enzymatic 14366 Merck, triglycerides 14364 Merck). Serum is suitably diluted using physiological saline solution.
100 μl of serum dilution are mixed with 100 μl of […] in 96-hole plates and incubated at room temperature for 10 minutes. The optical density is then determined at a wavelength of 492 nm using an automatic plate-reading apparatus. The triglyceride or cholesterol concentration contained in the samples is determined with the aid of a standard curve measured in parallel.
The determination of the content of HDL cholesterol is carried out according to the manufacturer's instructions after precipitation of the ApoB-containing lipoproteins by means of a reagent mixture (Sigma 352-4 HDL cholesterol reagent).

[2] = test system: lipoproteins and triglycerides; assay: In vivo activity in transgenic hCETP mice (lipoproteins and triglycerides); conditions: 400 ppm in the feed, one week
Experimental: Transgenic mice from in-house breeding (Dinchuck, Hart, Gonzalez, Karmann, Schmidt, Wirak; BBA (1995), 1295, 301) were administered the substances to be tested in the feed. Before the start of the experiment, blood was taken retro-orbitally from the mice in order to determine cholesterol and triglycerides in the serum. The serum was obtained as described above for hamsters by incubation at 4° C. overnight and subsequent centrifugation at 6000×g. After one week, blood was again taken from the mice in order to determine lipoproteins and triglycerides. The change in the parameters measured is expressed as a percentage change compared with the starting value.

SMILES: CC1(C)Cc2nc(C3CCCC3)c(C(F)c3ccc(Cl)c(C(F)(F)F)c3)c(-c3ccc(F)cc3)c2C(O)C1 (single isomer, unassigned) [Example 170]
- % Inhibition at 30 mg/kg (CETP): 60.1%
- ED50 values for ex vivo activity (CETP): < 30 mg/kg

SMILES: OC1CC2(CCCC2)Cc2nc(C3CCCC3)c(C(F)c3ccc(C(F)(F)F)cc3)c(-c3ccc(F)cc3)c21 (single isomer, unassigned) [Example 300]
- pIC50 [1]: 9.70

SMILES: CC1Cc2nc(C(C)C)c(C(F)c3ccc(C(F)(F)F)cc3)c(-c3ccc(F)cc3)c2C(O)C1 (centres unmarked) [Example 117]
- % Inhibition at 30 mg/kg (CETP): 86.0%
- ED50 values for ex vivo activity (CETP): < 30 mg/kg

SMILES: CC1(C)Cc2nc(C3CCCC3)c(C(F)c3ccc(C(F)(F)F)cc3)c(-c3ccc(F)cc3)c2C(O)C1 (single isomer, unassigned) [Example 91]
- % HDL rise (HDL cholesterol): +12.58%

SMILES: CC(C)c1nc2c(c(-c3ccc(F)cc3)c1C(F)c1ccc(C(F)(F)F)cc1)C(O)CC1CC21 (single isomer, unassigned) [Example 237]
- pIC50 [1]: 6.10
- % HDL rise (HDL cholesterol): +21.03%

SMILES: OC1CC2(CCC2)Cc2nc(C3CCCC3)c(C(F)c3ccc(C(F)(F)F)cc3)c(-c3ccc(F)cc3)c21 (centres unmarked) [Example 329]
- pIC50 [1]: 8.82

SMILES: CC1Cc2nc(C3CCCC3)c(C(F)c3ccc(C(F)(F)F)cc3)c(-c3ccc(F)cc3)c2C(O)C1 (single isomer, unassigned) [Example 76]
- pIC50 [1]: 8.22
- % HDL rise (HDL cholesterol): +15.81%
- HDL (percentage change compared with the starting value) [2]: +31.25%
- LDL (percentage change compared with the starting value) [2]: -15.3%
- Triglycerides (percentage change compared with the starting value) [2]: -11.7%

SMILES: CC1(C)Cc2nc(C3CCCC3)c(C(F)c3ccc4ccccc4c3)c(-c3ccc(F)cc3)c2C(O)C1 (single isomer, unassigned) [Example 184]
- % Inhibition at 30 mg/kg (CETP): 53.5%
- ED50 values for ex vivo activity (CETP): < 30 mg/kg

SMILES: OC1CC(C2CC2)Cc2nc(C3CCCC3)c(C(F)c3ccc(C(F)(F)F)cc3)c(-c3ccc(F)cc3)c21 (centres unmarked) [Example 209]
- % HDL rise (HDL cholesterol): +25.94%

SMILES: CC1Cc2nc(C3CCCC3)c(C(F)c3ccc(C(F)(F)F)cc3F)c(-c3ccc(F)cc3)c2C(O)C1 (single isomer, unassigned) [Example 181]
- % Inhibition at 30 mg/kg (CETP): 46.4%
- ED50 values for ex vivo activity (CETP): > 30 mg/kg

SMILES: CC(C)c1nc2c(c(-c3ccc(F)cc3)c1C(F)c1ccc(C(F)(F)F)cc1)C(O)CC1(CC1)C2 (single isomer, unassigned) [Example 313]
- pIC50 [1]: 9.70

SMILES: CC1Cc2nc(C(C)C)c(C(F)c3ccc(C(F)(F)F)cc3)c(-c3ccc(F)cc3)c2C(O)C1 (centres unmarked) [Example 115]
- % Inhibition at 30 mg/kg (CETP): 61.9%
- ED50 values for ex vivo activity (CETP): < 30 mg/kg

SMILES: CC(C)c1nc2c(c(-c3ccc(F)cc3)c1C(F)c1ccc(C(F)(F)F)cc1)C(O)CC1(CC1)C2 (single isomer, unassigned) [Example 312]
- pIC50 [1]: 7.22

SMILES: CC1(C)Cc2nc(C3CCCC3)c(C(F)c3ccc4c(c3)OC(F)(F)O4)c(-c3ccc(F)cc3)c2C(O)C1 (single isomer, unassigned) [Example 244]
- pIC50 [1]: 7.22

SMILES: CC1(C)Cc2nc(C3CCCC3)c(C(N=[N+]=[N-])c3ccc(C(F)(F)F)cc3)c(-c3ccc(F)cc3)c2C(O)C1 (centres unmarked) [Example 195]
- pIC50 [1]: 6.12

SMILES: CC(C)c1nc2c(c(-c3ccc(F)cc3)c1C(F)c1ccc(C(F)(F)F)cc1)C(O)CC1(CCCC1)C2 (single isomer, unassigned) [Example 291]
- pIC50 [1]: 7.52

SMILES: OC1CC2(CC2)Cc2nc(C3CCCC3)c(C(F)c3ccc(C(F)(F)F)cc3)c(-c3ccc(F)cc3)c21 (single isomer, unassigned) [Example 319]
- pIC50 [1]: 7.30

SMILES: CC(C)c1nc2c(c(-c3ccc(F)cc3)c1C(F)c1ccc(C(F)(F)F)cc1)C(O)CC(C)(C)C2 (single isomer, unassigned) [Example 90]
- pIC50 [1]: 7.22

SMILES: OCC1Cc2nc(C3CCCC3)c(C(F)c3ccc(C(F)(F)F)cc3)c(-c3ccc(F)cc3)c2C(O)C1 (single isomer, unassigned) [Example 211]
- % HDL rise (HDL cholesterol): +7.54%
